Results taken from patent US20160310481A1, “LAQUINIMOD FOR TREATMENT OF CANNABINOID RECEPTOR TYPE 1(CB1) MEDIATED DISORDERS” (Teva Pharmaceutical Industries, Ltd., priority 2012, published 2016).
Where two headings read alike, the source gives them in different places.

Key:
[1] = test system: glutamatergic transmission in control striatal neurons; assay: Bath application on corticostriatal slices of wild type mice: sEPSCs (basal glutamatergic transmission); type: cell-based
[2] = target: cannabinoid CB1 receptor (Mus musculus, UniProt P47746); settings: HU210 1 μM
Sequence of cannabinoid CB1 receptor (P47746 whole entry): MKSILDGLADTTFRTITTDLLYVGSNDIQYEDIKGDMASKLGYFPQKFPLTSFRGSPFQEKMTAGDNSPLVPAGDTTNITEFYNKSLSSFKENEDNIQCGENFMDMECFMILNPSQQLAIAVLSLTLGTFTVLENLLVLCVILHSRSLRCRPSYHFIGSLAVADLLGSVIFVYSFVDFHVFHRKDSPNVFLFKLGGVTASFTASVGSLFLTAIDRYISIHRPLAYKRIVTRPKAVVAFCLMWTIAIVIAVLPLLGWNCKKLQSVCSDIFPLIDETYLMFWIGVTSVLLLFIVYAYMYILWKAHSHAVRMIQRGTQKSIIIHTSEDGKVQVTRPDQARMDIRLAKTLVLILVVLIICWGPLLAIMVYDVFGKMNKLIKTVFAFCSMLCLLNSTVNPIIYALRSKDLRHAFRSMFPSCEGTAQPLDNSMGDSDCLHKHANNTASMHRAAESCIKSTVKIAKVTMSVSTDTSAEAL
Protocol: Recordings were performed between 25 and 35 dpi. Mice were killed by cervical dislocation under halothane anaesthesia, and corticostriatal coronal slices (200 μm) were prepared from fresh tissue blocks of the brain with the use of a vibratome (Centonze et al., 2007, 2009; Rossi et al., 2010a,b). A single slice was then transferred to a recording chamber and submerged in a continuously flowing artificial CSF (ACSF) (34° C., 2-3 ml/min) gassed with 95% O2-5% CO2. The composition of the control ACSF was (in mM): 126 NaCl, 2.5 KCl, 1.2 MgCl2, 1.2 NaH2PO4, 2.4 CaCl2, 11 Glucose, 25 NaHCO3. Recording pipettes were advanced towards individual striatal cells in the slice under positive pressure and visual control (WinVision 2000, Delta Sistemi, Italy) and, on contact, tight GΩ seals were made by applying negative pressure. The membrane patch was then ruptured by suction and membrane current and potential monitored using an Axopatch 1D patch clamp amplifier (Axon Instruments, Foster City, Calif., USA). Whole-cell access resistances measured in voltage clamp were in the range of 5-20 MΩ. Whole-cell patch clamp recordings were made with borosilicate glass pipettes (1.8 mm o.d.; 2-3 MΩ), in voltage-clamp mode, at the holding potential (HP) of −80 mV. […] Synaptic events were stored by using P-CLAMP (Axon Instruments) and analyzed off line on a personal computer with Mini Analysis 5.1 (Synaptosoft, Leonia, N.J., USA) software. […] Offline analysis was performed on spontaneous and miniature synaptic events recorded during fixed time epochs (3-5 min, 3-6 samplings), sampled every 5 or 10 minutes. […]
For data presented as mean ±SE, n indicates the number of cells. One to six cells per animal were recorded. […] Multiple comparisons were analysed by one-way ANOVA followed by Tukey's HSD test. Comparisons between two groups were analysed by paired or unpaired Student's t-test. […]

[3] = test system: EAE mice; assay: EAE induction and disease evaluation, preventive daily s.c. LQ treatment; type: in vivo, C57BL/6 mice; settings: preventive treatment 0-26 dpi, daily s.c. 1-25 mg/kg
Protocol: Female C57BL/6 mice at 6-8 weeks of age were purchased from Charles River (Calco, Milan, Italy) and housed in pathogen-free conditions. All procedures involving animals were performed according to the guidelines of the San Raffaele Scientific Institute Institutional Animal Care and Use Committee.
EAE was induced by immunization with 3 subcutaneous injection of 100 μl each, containing a total of 200 μg of myelin oligodendrocyte glycoprotein (MOG) peptide 35-55 (Multiple Peptide System) in incomplete Freund's adjuvant and 8 mg/ml of Mycobacterium tuberculosis (strain H37Ra; Difco). Pertussis toxin (Sigma) (500 ng) was injected on the day of the immunization and again two days later. Body weight and clinical score (0=healthy; 1=limp tail; 2=ataxia and/or paresis of hindlimbs; 3=paralysis of hindlimbs and/or paresis of forelimbs; 4=tetraparalysis; 5=moribund or death) were recorded daily.
EAE mice were treated once daily by subcutaneous (s.c.) injection of LQ (supplied by Teva Pharmaceutical Industries, Netanya, Israel) (thereafter referred as LQ-EAE). LQ was administered at different doses (from 1 to 25 mg/kg) starting the same day of immunization up to 26 days post immunization (d.p.i.). Sham treated EAE mice (thereafter referred as untreated-EAE) and healthy control mice (thereafter referred as HC) were used as controls. […]

[4] = test system: rat model of ADHD; assay: Rat model of ADHD; type: in vivo; settings: compared to control rats
Protocol: Laqunimod is tested in a rat model of ADHD.

[5] = test system: spinal cord of EAE mice; assay: Histological evaluation of spinal cord of EAE mice; type: in vivo, C57BL/6 mice
Protocol: At least 5 mice per group were transcardially perfused through the left cardiac ventricle with saline, plus EDTA 0.5 M for 5-10 min followed by fixation with cold 4% paraformaldehyde (PFA) (Sigma, St Louis, Mo.) in 0.1 M phosphate buffer (pH 7.4). Subsequently, spinal cords and brains were carefully dissected out and post-fixed in 4% PFA for 3-4 h and processed for paraffin embedding. The quantification of neurological damage was performed on 5 µm paraffin CNS sections obtained from HC, LQ-EAE mice, and untreated-EAE mice. Three different staining were used to detect inflammatory infiltrates (H&E), demyelination (Luxol fast blue) and axonal damage (Bielshowsky). Imunohistochemistry for CD3 (pan-T cell marker, Serotec Ltd, Oxford, UK), and BS-I isolectin B4 (biotinilated from Sigma, St Louis, Mo.) was performed to investigate T cells and macrophages within the inflammatory cellular infiltrates, respectively. […] Neuropathological findings were quantified on an average of 18-20 complete cross-sections of spinal cord per mouse taken at 8 different levels of the spinal cord. The number of perivascular inflammatory infiltrates were calculated and expressed as the numbers of inflammatory infiltrates per mm^2, demyelinated areas and axonal loss were expressed as percentage of damaged area per mm2. The number of T cells and macrophages lining within the subarachnoid space or infiltrating the CNS parenchyma was calculated and expressed as the number of cells per mm2. An Olympus microscope for the acquisitions of pictures was used. Statistical analysis was performed using the unpaired Student's t-test.

[6] = test system: human subjects diagnosed with ADHD; assay: Human ADHD trial; type: in vivo; settings: compared to the control group
Protocol: Laquinimod is administered to human subjects diagnosed with ADHD.

[7] = test system: striatal glutamatergic transmission; assay: Whole-cell patch clamp of striatal neurons from EAE mice: glutamate-mediated sEPSCs; type: in vivo; settings: LQ-EAE mice 25 mg/kg, n=20; untreated-EAE 4.0±0.2, HC 2.7±0.2
[8] = test system: GABAergic transmission in control striatal neurons; assay: Bath application on corticostriatal slices of wild type mice: sIPSCs (basal GABAergic transmission); type: cell-based
[9] = test system: DAT-CI mice; assay: Mouse model of ADHD (DAT-CI mice); type: in vivo
From the text: DAT cocaine-insensitive (DAT-CI) mice have a triple point-mutation in the cocaine-binding site of the dopamine […] (DAT) gene. The behavior of DAT-CI mice mimics human ADHD behavior. As previously described, the sensitivity of CB1 receptors controlling GABA-mediated synaptic currents in the striatum of DAT-CI mice was completely lost. ([…] et al., 2011).

[10] = LQ-EAE vs control, dose dependent
[11] = LQ 1 μM bath application, control neurons
[12] = LQ 1 μM, 12 minutes, control neurons, compared to pre-drug values, second mention
[13] = LQ 1 μM, 12 minutes, compared to pre-drug values, first mention

N#Cc1cc2[nH]c(=O)c(=O)[nH]c2cc1[N+](=O)[O-] [CNQX]
blockade of sEPSCs ([1]; recorded in the presence of LQ, n=5, CNQX 10 μM): fully blocked

CCCCCCC(C)(C)c1cc(O)c2c(c1)OC(C)(C)[C@@H]1CC=C(CO)C[C@@H]21 [HU210]
sIPSC frequency during HU210, respect to pre-drug values ([2]; control slices, 10 min, n=8): 76±3% | sIPSC frequency during HU210, respect to pre-drug values ([2]; striatal neurons from untreated EAE mice, n=10): 101±3%

CCN(C(=O)c1c(O)c2c(Cl)cccc2n(C)c1=O)c1ccccc1 [LQ, N-ethyl-N-phenyl-1,2-dihydro-4-hydroxy-5-chloro-1-methyl-2-oxoquinoline-3-carboxamide]
effect on EAE clinical course [3]: significantly suppresses EAE in a dose-dependent manner | result in rat model of ADHD [4]: positive results | Demyelination [5, 10]: reduced | axonal loss [5, 10]: reduced | number of T lymphocytes (CD3+) in cellular infiltrates ([5]; LQ-EAE vs untreated-EAE mice): diminished number | number of microglia/macrophages (Isolectin B4+) in cellular infiltrates ([5]; LQ-EAE vs untreated-EAE mice): diminished number | numbers of infiltrates within spinal cord sections ([5]; LQ-EAE vs untreated-EAE mice): reduction in numbers of infiltrates | amplitude of sEPSCs [1, 11]: failed to alter | frequency of sEPSCs [1, 11]: failed to alter | sIPSC decay time [1, 12]: 101±2% | sIPSC rise time [1, 12]: 99±1% | sEPSC amplitude ([1]; LQ 10-30 μM bath application, control neurons, n=10): reducing sEPSC amplitude | frequency of sEPSCs, respect to pre-drug values ([1]; highest concentration of LQ, n=7): 83±2.7% | result in human ADHD subjects [6]: alleviation of inattention, hyperactivity or impulsivity | frequency of sEPSCs [7]: 3.4±0.4 Hz | amplitude of sIPSCs ([8]; LQ 1 μM bath application): failed to alter | frequency of sIPSCs ([8]; LQ 1 μM bath application): failed to alter | sIPSC decay time [8, 13]: 98±3% | sIPSC rise time [8, 13]: 101±2% | sIPSC frequency during HU210, respect to pre-drug values ([2]; striatal neurons from LQ-EAE mice (25 mg/kg), n=10): 75±3% | sensitivity of CB1 receptors to CB1 receptor agonist HU210 ([9]; DAT-CI mice): restored sensitivity | locomotor activity ([9]; DAT-CI mice compared to control mice): decreased locomotor activity
